Patent US8372979B2, “Process for the production of high-purity 2,4′-dimethyl-3-piperidino-propiophenone (tolperisone), pharmaceutical compositions that contain the latter, as well as active ingredient formulations that contain tolperisone” (SANOCHEMIA Pharmazeutika AG, priority 2007, dated 2013)
“Also recorded” adds a separate entry of the source.

Columns and labels:
[1] = preclinical in vitro tests (genotoxicity); settings: classification also based on chemical structure
[2] = storage stability of tolperisone end product (4-MMPPO formation, HPLC-MS/MS); format: physicochemical
Procedure: Prior art according to AT PS 413 539: The tolperisone crude product is dissolved under reflux for 30 minutes in an 85:15 mixture that consists of 2-butanone (MEK) and isopropanol. The temperature is lowered to 80° C., and the solution is hot-filtered. The solution is allowed to cool to 5° C., and it is stirred for 7 hours. The crystalline precipitate that is obtained is filtered off, washed with 2-butanone, and then dried in a vacuum at 45-85° C.
A proportion of 500 ppm of 4-MMPPO is detected by analysis using HPLC-MS/MS.
The tolperisone crude product is dissolved under reflux for 12 hours in an 85:15 mixture that consists of 2-butanone (MEK) and isopropanol and with the addition of 1% HCl and 5% citric acid. The temperature is lowered to 80° C., and the solution is hot-filtered. The solution is allowed to cool to 5° C., and it is stirred for 7 hours at 5° C. The crystalline precipitate is filtered off, washed with MEK, and then dried in a vacuum at 45° to 85° C.
By analysis using HPLC-MS/MS, a proportion of 4-MMPPO in a range of 0 ppm (not detectable) to 10 ppm is determined.

| Compound | genotoxic or carcinogenic actions [1] | stabilizing effect of citric acid present in end product ([2]; Variant IIIa: recrystallization in MEK/IPA + 1% HCl + 5% citric acid) | 4-MMPPO values with extended storage ([2]; end product of prior-art process AT 413 539 (recrystallization MEK/IPA, no acid)) |
| --- | --- | --- | --- |
| C=C(C)C(=O)c1ccc(C)cc1 [4-MMPPO, 2-methyl-1-(4-methylphenyl)-propenone] | genotoxic or carcinogenic actions have been detected; also recorded: potentially genotoxic |  |  |
| Cc1ccc(C(=O)C(C)CN2CCCCC2)cc1 (stereo not drawn) [tolperisone, 2,4′-dimethyl-3-piperidino-propiophenone] |  | a stabilizing effect could be detected | additional increasing 4-MMPPO values |
